Assays:
[1] = system: adjuvant-induced arthritis; assay: Adjuvant-Induced Arthritis (AIA) in Lewis rats; conditions: 35 days and 45 days treatment sections
HBV [2] = assay: Efficacy of RAAS-8 in the HBV mouse hydrodynamic injection model; assay type: in vivo, BALB/c mice
Protocol: 3.1 Hydrodynamic Injection and Compound Administration • 3.1.1. From day −7 to day 0, all 5 mice in group 4 were administrated i.p./i.v. with test article daily for 8 • days according to Table 2. • 3.1.2. On day 0, all groups of mice were hydrodynamicly injected via tail vein with pcDNA3.1/HBV plasmid DNA in a volume of normal saline equal to 8% of a mouse body weight. The plasmid DNA solution for injections was prepared one day before injection and then stored in 4E until injection. • 3.1.3. From day 0 to day 5, mice in groups 1-3 were weighed and treated with compounds or vehicle according to the regimen in Table 2. For groups 1 and 3, the first dosing was executed 4 hours pre HDI. For groups 2, the first dosing was executed 4 hours post HDI. For group 4, the last dosing was carried out 4 hours post HDI. • 3.1.4. All mice were submandibularly bled for plasma preparation according to the design in Table 1. • 3.1.5. All mice were sacrificed and dissected to obtain livers (two pieces of left lobe, one piece of middle lobe and one piece of right lobe) according to the regimen in table 1. Isolated livers were snap frozen in liquid nitrogen immediately upon collected.
3.2.1 Detect HBV DNA Replication Level in Plasma • 3.2.1.1 Isolate DNA from 50 μl plasma using QIAamp 96 DNA Blood Kit. DNA was eluted with 120 μl ddH2O. • 3.2.1.2. Run qPCR for HBV DNA quantification. • a) Dilute HBV plasmid standard by 10-fold from 10^7 copies/μl to 10 copies/μl. • b) Prepare qPCR mix as shown below.
To eliminate the influence of input HBV plasmid, primers and probe targeting HBV sequence which detect newly replicated HBV DNA and input HBV plasmid DNA and targeting pcDNA3.1 plasmid backbone sequence which only detect the input plasmid DNA were used to do real-time PCR, respectively.
HBV DNA quantity=DNA determined by HBV primer-DNA determined by plasmid primer.
Dilute the plasma 500 fold;
Detect HBsAg level in 50 μl diluted plasma by using HBsAg ELISA kit.
3.2.3.1 Liver DNA Isolation • a) Homogenize the liver tissue with Qiagen Tissue Lyser in 10 mM Tris.HCl, 10 mM EDTA, pH7.5. • b) Spin samples. Transfer the supernatant to a new tube containing equal volume of 2× proteinase K digestion buffer. Incubate at 50[…] for 3 hours. • c) Extract with phenol: chloroform: Isoamyl alcohol. • d) Transfer the upper phase to new tubes, add RNase A and incubate at 37° C. for 30 min. • e) Extract with phenol: chloroform: Isoamyl alcohol. • f) Transfer the upper phase to new microfuge tubes, add 0.7-1 volume of isopropanol, add GlycoBlue Coprecipitant to 50 μg/mL, incubate at −20[…] for 30 min. • g) Centrifuge (12000 g, 10 min) to precipitate DNA. • h) Wash the precipitate with 70% ethanol. Dissolve it in 25 μl ddH2O. Store DNA at −20[…] until use.
The total liver DNA was diluted to 10 ng/μl. […]

HBV [3] = assay: Efficacy of AFOD RAAS 105 in the HBV mouse hydrodynamic injection model; assay type: in vivo, BALB/c mice
Protocol: From day −7 to day 0, mice in groups 6-7 are administrated IP/IV by turn with test article daily for 8 days according to Table 3.
On day 0, mice from group 1 to group 7 are hydrodynamically injected through tail vein with pcDNA3.1/HBV plasmid DNA in a volume of normal saline equal to 8% of a mouse body weight within 5 seconds. The plasmid DNA solution for injections is prepared before injection.
From day 0 to day 4, mice in groups 3-5 are administrated IP/IV by turn with test article daily for 5 days according to Table 2. From day 0 to day 4, mice in groups 1 and 2 are administrated PO with vehicle or ETV daily for 5 days according to Table 1. For groups 1-5, the first dosing is executed 4 hours post hydrodynamic injection. For groups 6-7, the last dosing is executed 4 hours pre hydrodynamic injection.
Mice from group 1 to group 7 are submandibularly bled for plasma preparation according to the design in Table 1. The blood samples will be collected in a tube containing heparin sodium and centrifuged at 7000×g and 4° C. for 10 min to obtain plasma samples.
On day 5, all mice in groups 1-7 are sacrificed and dissected to obtain livers (two pieces of left lobe, one piece of middle lobe and one piece of right lobe) according to the regimen in table 1. […]
Run qPCR for HBV DNA quantification. • a. […]
HBV DNA quantity=DNA determined by HBV primer-DNA determined by plasmid primer. […]

Row | Structure (SMILES) | body weight vs saline group [1] | ssDNA in liver by southern blot (HBV [2]; RASS 8 prophylactic treatment or ETV treatment) | HBV intermediate DNA in liver by real-time PCR (HBV [2]; day 5) | HBsAg level in plasma (HBV [2]; therapeutic treatment, within 5 days post HDI) | inhibition to HBV replication (plasma HBV DNA) (HBV [2]; therapeutically-treated, day 3 post HDI to end) | HBV replication in livers by real-time PCR (HBV [3]; day 5) | HBsAg generation (HBV [3]; oral 0.1 mg/kg, day 3)
1 | C[C@@H]1C[C@H]2[C@@H]3CCC4=CC(=O)C=C[C@]4(C)[C@@]3(F)[C@@H](O)C[C@]2(C)[C@@]1(O)C(=O)CO [Dex, Dexamethasone] | reduction of body weight |  |  |  |  |  | 
2 | C=C1[C@H](CO)[C@@H](O)C[C@@H]1n1cnc2c(=O)[nH]c(N)nc21 [entecavir, Entecavir, reference compound] |  | decreased dramatically | significantly decreased | didn't have significant inhibition | significant inhibition | significantly inhibited HBV replication in livers | significant increase
